The values that follow come from ChEMBL document CHEMBL5576145, “Domoic Acid as a Lead for the Discovery of the First Selective Ligand for Kainate Receptor Subtype 5 (GluK5)” (J Med Chem, 2024).

The structures appear in SMILES notation. The source made the active and inactive calls. The rule behind the calls is not given here. Where only a bound is given, the exact number is not on record here.

Assay [1] has as its target Glutamate receptor ionotropic, kainate 1 (Rattus norvegicus) (UniProt P22756). Put plainly: Displacement of [3H]-NF608 from rat GluK1 assessed as percent of radioligand binding at 10 uM relative to control.
For assay [2], the target named is Glutamate receptor ionotropic, kainate 2 (Rattus norvegicus, UniProt P42260). Put plainly: Displacement of [3H]-KA from rat GluK2.
Assay [3] concerns Neuron. Nature of the assay: Agonist activity at GluK2/K5 in mouse hippocampal neurons assessed as change in holding current at 10 uM by electrophysiology. The class given is cell-based. To be noted: filed as agonist.
Assay [4] has as its target Glutamate receptor 4 (Rattus norvegicus) (UniProt P19493). Put plainly: Displacement of [3H]-AMPA from AMPA in rat cortical synaptosomes assessed as remaining activity at 10 uM incubated for 30 mins by TopCount microplate scintillation counting method relative to control. The class given is subcellular. The note with it: Cortex, Synaptosome.
Assay [5] concerns the target T1, Ionotropic glutamate receptor kainate 2/5 (Homo sapiens) (UniProt Q16478+Q13002). Nature of the assay: Antagonist activity at GluK2/K5 (unknown origin) expressed in HEK293T cells preincubated with compound followed by L-Glu stimulation by electrophysiology. The class given is cell-based.
Assay [6] has as its target Glutamate NMDA receptor (Rattus norvegicus) (UniProt P35439+Q00959+Q00960+Q00961+Q62645+Q8VHN2+Q9R1M7). Put plainly: Displacement of [3H]CGP39653 from NMDA receptor in rat cortical synaptosomes assessed as remaining activity at 10 uM incubated for 60 mins by Topcount microplate scintillation counting method relative to control. To be noted: Cortex, Synaptosome. The class given is subcellular.

Assay [7] concerns Neuron. Nature of the assay: Agonist activity at GluK2/K5 in mouse hippocampal neurons assessed as change in holding current at 100 uM by electrophysiology. The class given is cell-based. To be noted: filed as agonist.
The target in assay [8] is Glutamate receptor ionotropic, kainate 3 (Rattus norvegicus, UniProt P42264). Put plainly: Displacement of [3H]-KA from rat GluK3.
The nature of assay [9]: Displacement of [3H]-KA from KA in rat cortical synaptosomes incubated for 60 mins by TopCount microplate scintillation counting method. The class given is subcellular, Cortex, Synaptosome.
For assay [10], the target named is T1, Ionotropic glutamate receptor kainate 2/5 (Homo sapiens). Nature of the assay: Agonist activity at GluK2/K5 (unknown origin) expressed in HEK293T cells at 10 uM by electrophysiology. The class given is cell-based.
The target of assay [11] is T2, Glutamate receptor ionotropic, kainate 5 (Mus musculus, UniProt Q61626).
T2 sequence (Q61626 whole entry): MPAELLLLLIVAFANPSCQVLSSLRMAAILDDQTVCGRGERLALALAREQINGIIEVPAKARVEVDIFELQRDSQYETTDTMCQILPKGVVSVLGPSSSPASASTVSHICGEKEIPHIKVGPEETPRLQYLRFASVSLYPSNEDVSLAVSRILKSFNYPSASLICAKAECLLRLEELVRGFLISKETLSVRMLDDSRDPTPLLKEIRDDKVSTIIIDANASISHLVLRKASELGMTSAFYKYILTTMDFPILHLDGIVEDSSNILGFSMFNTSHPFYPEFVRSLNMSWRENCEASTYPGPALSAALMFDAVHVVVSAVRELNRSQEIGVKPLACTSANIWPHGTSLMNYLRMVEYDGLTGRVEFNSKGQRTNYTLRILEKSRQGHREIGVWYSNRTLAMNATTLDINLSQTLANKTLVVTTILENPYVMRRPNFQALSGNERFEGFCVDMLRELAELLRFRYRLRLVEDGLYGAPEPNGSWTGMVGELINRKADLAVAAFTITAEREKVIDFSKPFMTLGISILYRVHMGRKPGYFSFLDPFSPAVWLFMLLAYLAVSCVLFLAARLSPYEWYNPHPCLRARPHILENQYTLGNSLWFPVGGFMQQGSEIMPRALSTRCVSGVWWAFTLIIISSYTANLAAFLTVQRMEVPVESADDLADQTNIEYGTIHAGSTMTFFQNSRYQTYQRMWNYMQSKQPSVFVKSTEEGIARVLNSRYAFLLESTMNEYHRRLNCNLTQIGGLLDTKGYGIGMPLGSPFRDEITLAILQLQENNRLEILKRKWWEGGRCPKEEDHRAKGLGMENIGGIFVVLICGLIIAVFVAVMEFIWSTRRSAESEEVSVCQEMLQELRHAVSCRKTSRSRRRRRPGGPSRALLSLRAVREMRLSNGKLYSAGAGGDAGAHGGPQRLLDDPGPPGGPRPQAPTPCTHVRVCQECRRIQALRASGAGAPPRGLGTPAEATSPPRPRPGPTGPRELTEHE
Put plainly: Displacement of [3H]-kainate from mouse GluK5 expressed in Sf9 cell membrane incubated for 2 hrs by scintillation counting method. The class given is cell membranes.

For a further assay, the system named is Hippocampus. Nature of the assay: Reduction in CA1 spike amplitude in Wistar rat hippocampal slices after 20 mins of toxin administration. The class given is functional, tissue-based.
Assay [12] has as its target T3, Glutamate receptor ionotropic, kainate 2 (Homo sapiens, UniProt Q13002). Put plainly: Displacement of [3H]-kainic acid from GluR6 (unknown origin) expressed in Sf9 cells membrane. The class given is cell membranes, Cell membrane.
Assay [13] addresses T4, Glutamate receptor 4 (Rattus norvegicus, UniProt P19493). Put plainly: Displacement of [3H]-AMPA from AMPA in rat brain membrane preincubated for 15 mins followed by [3H]-AMPA addition and measured after 40 mins by scintillation counting method. The class given is cell membranes.
Assay [14] can be described thus: Displacement of [3H]-Kainic acid from KA in rat brain membrane preincubated for 15 mins followed by [3H]-Kainic acid addition and measured after 1 hr by scintillation counting method. The class given is cell membranes.
The nature of assay [15]: Selectivity ratio of Ki for displacement of [3H]-NF608 from rat GluK1 to Ki for displacement of [3H]-kainate from mouse GluK5.
Assay [16] is described as follows: Selectivity ratio of Ki for displacement of [3H]-KA from rat GluK2 to Ki for displacement of [3H]-kainate from mouse GluK5.
Assay [17] concerns the target Glutamate receptor ionotropic, kainate 1 (Rattus norvegicus, UniProt P22756). Put plainly: Displacement of [3H]-NF608 from rat GluK1.
Assay [18] in a line: Selectivity ratio of Ki for displacement of [3H]-KA from rat GluK3 to Ki for displacement of [3H]-kainate from mouse GluK5.
The nature of assay [19]: Binding affinity to KA receptor in rat synaptosomes. The class given is subcellular, Synaptosome.
In assay [20] the target is Glutamate receptor ionotropic, kainate 1 (Homo sapiens, UniProt P39086). Put plainly: Displacement of [3H](2S, 4R)-4-MeGlu (SYM-2081) from GluK1 (unknown origin).
For assay [21], the target named is T4, Glutamate receptor 4. Nature of the assay: Displacement of [3H]-AMPA from AMPA in rat synaptic membrane. The class given is subcellular, Synaptosome.
A short description of assay [22]: Displacement of [3H]-Kainic acid from KA in rat synaptic membrane. The class given is subcellular, Synaptosome.
Assay [23] has as its target T4, Glutamate receptor 4. Put plainly: Binding affinity to AMPA receptor in rat synaptosomes. The class given is subcellular, Synaptosome.
Assay [24] has as its target T3, Glutamate receptor ionotropic, kainate 2. Put plainly: Displacement of [3H](2S, 4R)-4-MeGlu (SYM-2081) from GluK2 (unknown origin).
The target of another assay is Glutamate NMDA receptor. Put plainly: Displacement of [3H]CGP39653 from NMDA receptor in rat cortical synaptosomes incubated for 60 mins by Topcount microplate scintillation counting method. The class given is subcellular, Cortex, Synaptosome.
Assay [25] has as its target T4, Glutamate receptor 4. Put plainly: Displacement of [3H]-AMPA from AMPA in rat cortical synaptosomes incubated for 30 mins by TopCount microplate scintillation counting method. The class given is subcellular, Cortex, Synaptosome.

Chain of Glutamate receptor ionotropic, kainate 3 (P42264 whole entry): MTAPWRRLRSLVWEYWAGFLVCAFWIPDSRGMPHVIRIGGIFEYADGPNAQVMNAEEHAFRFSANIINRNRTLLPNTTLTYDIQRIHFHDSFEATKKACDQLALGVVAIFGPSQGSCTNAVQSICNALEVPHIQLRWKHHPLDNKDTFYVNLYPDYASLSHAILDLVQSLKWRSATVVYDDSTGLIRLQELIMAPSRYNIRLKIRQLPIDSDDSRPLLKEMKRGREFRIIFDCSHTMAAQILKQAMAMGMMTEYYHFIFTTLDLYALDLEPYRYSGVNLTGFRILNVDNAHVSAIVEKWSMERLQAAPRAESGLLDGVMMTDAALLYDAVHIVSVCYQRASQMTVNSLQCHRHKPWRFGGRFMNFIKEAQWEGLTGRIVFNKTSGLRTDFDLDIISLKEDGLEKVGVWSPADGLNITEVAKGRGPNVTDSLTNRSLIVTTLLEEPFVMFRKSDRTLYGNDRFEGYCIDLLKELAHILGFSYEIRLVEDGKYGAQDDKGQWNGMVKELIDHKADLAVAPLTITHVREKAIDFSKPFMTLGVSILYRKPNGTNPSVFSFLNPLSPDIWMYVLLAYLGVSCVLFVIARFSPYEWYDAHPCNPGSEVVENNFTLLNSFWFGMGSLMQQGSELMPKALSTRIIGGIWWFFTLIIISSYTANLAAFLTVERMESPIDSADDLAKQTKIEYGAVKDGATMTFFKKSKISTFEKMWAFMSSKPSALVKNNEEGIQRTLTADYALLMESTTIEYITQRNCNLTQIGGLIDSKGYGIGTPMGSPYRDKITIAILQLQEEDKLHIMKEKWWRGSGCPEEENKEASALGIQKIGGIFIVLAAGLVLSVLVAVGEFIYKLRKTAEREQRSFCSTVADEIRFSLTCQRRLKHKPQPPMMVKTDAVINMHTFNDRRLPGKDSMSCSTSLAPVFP
Chain of Glutamate receptor ionotropic, kainate 2 (Rattus norvegicus, UniProt P42260) (P42260 whole entry): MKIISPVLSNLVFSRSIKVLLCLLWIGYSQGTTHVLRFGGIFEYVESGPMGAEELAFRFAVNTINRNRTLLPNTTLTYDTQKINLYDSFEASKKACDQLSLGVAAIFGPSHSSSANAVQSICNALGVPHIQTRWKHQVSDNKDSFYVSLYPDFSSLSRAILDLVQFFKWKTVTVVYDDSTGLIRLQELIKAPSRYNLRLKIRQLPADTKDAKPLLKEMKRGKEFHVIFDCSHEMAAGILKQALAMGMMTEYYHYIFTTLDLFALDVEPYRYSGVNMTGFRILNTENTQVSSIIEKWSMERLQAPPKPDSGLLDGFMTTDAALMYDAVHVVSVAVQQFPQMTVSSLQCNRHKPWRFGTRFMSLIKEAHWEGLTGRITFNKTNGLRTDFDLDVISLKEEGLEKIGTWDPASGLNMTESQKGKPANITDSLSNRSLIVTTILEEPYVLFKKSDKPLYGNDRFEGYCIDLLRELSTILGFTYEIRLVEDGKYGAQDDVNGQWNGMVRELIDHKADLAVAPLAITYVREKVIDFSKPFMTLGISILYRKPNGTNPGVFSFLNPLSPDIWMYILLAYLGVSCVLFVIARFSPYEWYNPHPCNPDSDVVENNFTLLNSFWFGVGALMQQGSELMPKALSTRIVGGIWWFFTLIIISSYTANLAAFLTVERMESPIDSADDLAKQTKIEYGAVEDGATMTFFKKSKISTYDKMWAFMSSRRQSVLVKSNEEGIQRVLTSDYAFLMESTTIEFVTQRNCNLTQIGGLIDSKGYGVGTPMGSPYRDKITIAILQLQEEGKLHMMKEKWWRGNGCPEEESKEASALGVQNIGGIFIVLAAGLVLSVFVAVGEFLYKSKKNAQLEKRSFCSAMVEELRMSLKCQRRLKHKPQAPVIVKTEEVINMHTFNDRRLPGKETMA
Chain of Glutamate receptor ionotropic, kainate 1 (Rattus norvegicus, UniProt P22756) (P22756 whole entry): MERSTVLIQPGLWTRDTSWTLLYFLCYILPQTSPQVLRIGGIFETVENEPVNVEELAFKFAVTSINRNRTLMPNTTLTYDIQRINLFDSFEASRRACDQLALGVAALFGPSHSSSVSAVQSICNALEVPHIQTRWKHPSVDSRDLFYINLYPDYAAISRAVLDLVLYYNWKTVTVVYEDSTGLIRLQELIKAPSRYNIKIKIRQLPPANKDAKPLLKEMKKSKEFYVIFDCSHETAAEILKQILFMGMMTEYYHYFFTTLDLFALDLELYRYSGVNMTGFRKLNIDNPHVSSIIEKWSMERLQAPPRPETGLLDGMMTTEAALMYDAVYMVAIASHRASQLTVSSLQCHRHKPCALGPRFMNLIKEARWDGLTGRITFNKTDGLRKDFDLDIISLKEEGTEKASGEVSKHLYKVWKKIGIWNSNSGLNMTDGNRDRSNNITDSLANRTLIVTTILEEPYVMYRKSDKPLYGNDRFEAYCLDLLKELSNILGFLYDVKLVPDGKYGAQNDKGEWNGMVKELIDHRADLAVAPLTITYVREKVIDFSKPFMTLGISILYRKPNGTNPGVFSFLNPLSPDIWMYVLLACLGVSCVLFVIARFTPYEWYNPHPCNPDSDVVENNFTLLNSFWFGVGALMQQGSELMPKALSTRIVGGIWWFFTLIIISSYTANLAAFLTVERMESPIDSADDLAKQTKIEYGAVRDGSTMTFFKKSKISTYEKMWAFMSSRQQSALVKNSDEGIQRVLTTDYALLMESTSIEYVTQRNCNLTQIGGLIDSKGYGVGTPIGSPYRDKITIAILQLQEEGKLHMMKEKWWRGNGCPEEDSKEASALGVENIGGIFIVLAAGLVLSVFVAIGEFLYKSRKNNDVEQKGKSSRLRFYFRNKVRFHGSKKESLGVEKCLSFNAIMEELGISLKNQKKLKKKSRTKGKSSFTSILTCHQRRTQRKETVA
Chain of Glutamate receptor 4 (Rattus norvegicus) (P19493 whole entry): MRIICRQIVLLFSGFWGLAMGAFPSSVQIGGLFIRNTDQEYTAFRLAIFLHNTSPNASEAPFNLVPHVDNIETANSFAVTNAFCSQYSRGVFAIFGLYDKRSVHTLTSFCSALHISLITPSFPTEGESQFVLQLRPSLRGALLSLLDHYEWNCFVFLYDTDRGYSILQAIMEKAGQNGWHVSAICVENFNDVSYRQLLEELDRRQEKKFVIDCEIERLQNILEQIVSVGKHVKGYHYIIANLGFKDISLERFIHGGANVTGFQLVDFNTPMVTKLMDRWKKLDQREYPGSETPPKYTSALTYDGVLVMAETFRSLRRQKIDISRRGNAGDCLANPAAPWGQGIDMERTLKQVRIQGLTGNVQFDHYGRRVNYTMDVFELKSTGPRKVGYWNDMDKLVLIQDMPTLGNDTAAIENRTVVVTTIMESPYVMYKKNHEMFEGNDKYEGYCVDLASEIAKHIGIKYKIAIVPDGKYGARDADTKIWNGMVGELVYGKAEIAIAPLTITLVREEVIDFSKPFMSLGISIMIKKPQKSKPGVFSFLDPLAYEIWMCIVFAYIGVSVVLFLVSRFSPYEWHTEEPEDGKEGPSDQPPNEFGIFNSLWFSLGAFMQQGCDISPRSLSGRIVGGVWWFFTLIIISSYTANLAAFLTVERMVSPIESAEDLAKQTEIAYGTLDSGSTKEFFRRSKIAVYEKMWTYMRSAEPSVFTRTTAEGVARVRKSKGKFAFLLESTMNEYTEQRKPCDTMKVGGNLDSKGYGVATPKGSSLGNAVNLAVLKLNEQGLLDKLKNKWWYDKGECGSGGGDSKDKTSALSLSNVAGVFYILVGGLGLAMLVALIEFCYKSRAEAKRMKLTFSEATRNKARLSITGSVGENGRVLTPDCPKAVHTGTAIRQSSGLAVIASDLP
T4 sequence (P19493 whole entry): as above
T3 sequence (Q13002 whole entry): as the sequence (P42260 whole entry) above, with S5F, V7I, L11P, S14R, S16T, I17V, V19L, V494A counted along it
Chain of Glutamate receptor ionotropic, kainate 1 (Rattus norvegicus) (P22756 whole entry): as the sequence (P22756 whole entry) above
Chain of Glutamate receptor ionotropic, kainate 1 (Homo sapiens, UniProt P39086) (P39086 whole entry): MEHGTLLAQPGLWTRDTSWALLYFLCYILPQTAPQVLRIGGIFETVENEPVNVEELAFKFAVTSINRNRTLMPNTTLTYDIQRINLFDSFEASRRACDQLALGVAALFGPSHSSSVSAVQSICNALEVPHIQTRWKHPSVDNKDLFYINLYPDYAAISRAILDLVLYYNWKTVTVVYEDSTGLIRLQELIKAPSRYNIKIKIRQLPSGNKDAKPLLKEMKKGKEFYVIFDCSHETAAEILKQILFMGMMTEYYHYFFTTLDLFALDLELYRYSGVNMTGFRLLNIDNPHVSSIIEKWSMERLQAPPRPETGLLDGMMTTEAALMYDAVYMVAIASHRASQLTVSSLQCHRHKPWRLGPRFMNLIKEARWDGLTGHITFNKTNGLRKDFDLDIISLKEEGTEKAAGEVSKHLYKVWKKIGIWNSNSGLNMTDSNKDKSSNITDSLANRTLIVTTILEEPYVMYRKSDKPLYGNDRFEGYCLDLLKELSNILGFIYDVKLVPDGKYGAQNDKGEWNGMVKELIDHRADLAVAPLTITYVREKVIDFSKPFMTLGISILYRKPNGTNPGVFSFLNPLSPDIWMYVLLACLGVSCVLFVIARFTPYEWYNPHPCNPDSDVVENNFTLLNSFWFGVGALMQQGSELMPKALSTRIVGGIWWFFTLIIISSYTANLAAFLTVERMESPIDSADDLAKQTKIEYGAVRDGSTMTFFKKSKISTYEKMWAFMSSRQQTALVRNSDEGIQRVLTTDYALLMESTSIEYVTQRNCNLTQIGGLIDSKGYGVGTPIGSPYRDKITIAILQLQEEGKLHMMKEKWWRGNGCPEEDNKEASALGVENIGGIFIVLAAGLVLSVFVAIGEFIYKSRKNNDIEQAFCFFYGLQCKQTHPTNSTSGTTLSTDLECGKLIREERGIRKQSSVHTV

As to `O=C(O)C[C@@H]1[C@@H](C(=O)O)NC[C@@H]1n1nncc1-c1ccc2cc(O)ccc2c1`, the Activity in assay [1] is 90%; in the assay with Neuron [3], 56 pA; in assay [4] it was 90%; in assay [6], 99%; in the assay with Neuron [7], 148 pA. The Ki came to 70 µM in assay [2], 17.9 µM in assay [8] and 0.432 µM in assay [11]. In addition, the outcome in assay [5] and in assay [10] was inactive. The IC50 in [9] amounted to 4.4 µM.
As for `C/C(=C/C/C=C(\C)C(=O)O)[C@H]1CN[C@H](C(=O)O)[C@H]1CC(=O)O`, the EC50 with Hippocampus was 0.887 µM. The Ki in assay [12] is 0.13 µM.
On to `C/C(=C\C=C/[C@@H](C)C(=O)O)[C@H]1CN[C@H](C(=O)O)[C@H]1CC(=O)O`, for which the Activity in the assay with Neuron [3] was 2940 pA. Besides, the IC50 at Glutamate receptor 4 [13] was determined as 32 µM; in assay [14], 1.4 µM.
In the case of `CC(CCc1cnnn1[C@H]1CN[C@H](C(=O)O)[C@H]1CC(=O)O)C(=O)O` (stereo not given in full), the Ratio Ki in assay [15], in assay [16] and in assay [18] was 14 in each case. The Ki is 8.66 µM in assay [2], 11.7 µM in assay [17], 5.9 µM in assay [8] and 0.42 µM in assay [11]. Further, the Activity in assay [4] was 73%; in assay [6], 102%. Moreover, the 50% inhibitory concentration (IC50) in assay [9] was found to be 1.73 µM.
As for `C/C(=C/C=C/[C@@H](C)C(=O)O)[C@H]1CN[C@H](C(=O)O)[C@H]1CC(=O)O` [DOMOIC ACID], the IC50 in [19] is 0.015 µM; at Glutamate receptor 4 [21], 0.47 µM; in [22], 0.004 µM; at Glutamate receptor 4 [23] it was 9 µM. Further, the Ki in assay [20] came out at 0.00111 µM; in assay [24] it was 0.00604 µM. In the assay with Hippocampus, this compound had an EC50 of 0.228 µM.
Turning to `O=C(O)CCc1cn([C@H]2CN[C@H](C(=O)O)[C@H]2CC(=O)O)nn1`, the Ki (in [2]; at Glutamate NMDA receptor; in assay [17]; in [8]) was over 100 µM each time. In addition, the IC50 (on Glutamate receptor 4 [25]; in assay [9]) was over 100 µM each time.
Regarding `O=C(O)C[C@@H]1[C@@H](C(=O)O)NC[C@@H]1n1nncc1-c1ccccc1`, the Ratio Ki in assay [15], in assay [16] and in [18] was over 40 throughout. Besides, the Activity in assay [1] is 93%; in [4], 80%; in assay [6] it was 101%. Moreover, the Ki is 36 µM in assay [2], 21.1 µM in assay [8] and 0.499 µM in assay [11]. Moreover, the IC50 in assay [9] was 5.1 µM.
Regarding `O=C(O)C[C@@H]1[C@@H](C(=O)O)NC[C@@H]1n1ccnn1`, the Ki was 2.6 µM in assay [2], over 100 µM at Glutamate NMDA receptor, 3.3 µM in [17] and 0.28 µM in assay [8]. Moreover, the values for the IC50 (at Glutamate receptor 4 [25]; in [9]) were 9.5 µM and 1.3 µM, respectively.
